Data taken from ChEMBL document CHEMBL6078624, “Structure-based discovery of a 4,5-Dihydropyrazole-cored PET ligand for imaging of receptor-interacting serine/threonine-protein kinase 1 (RIPK1) in the brain” (Eur J Med Chem, 2024).

Legend:
[1] = Biodistribution in male ICR mouse kidney at 0.74 MBq, iv administered into tail vein pre-treated with WL8 followed by compound addition by automatic gamma counter analysis relative to baseline; type: ADME, organism-based; settings: in vivo
[2] = Biodistribution in male ICR mouse stomach at 0.74 MBq, iv administered into tail vein pre-treated with WL8 followed by compound addition by automatic gamma counter analysis relative to baseline; type: ADME, organism-based; settings: in vivo
[3] = Biodistribution in male ICR mouse kidneys at 0.74 MBq, iv administered into tail vein measured at 60 mins post-injection by automatic gamma counter analysis; type: ADME, organism-based, Kidney; settings: in vivo, 1 h
[4] = Biodistribution in male ICR mouse muscle tissue at 0.74 MBq, iv administered into tail vein pre-treated with GSK'547 followed by compound addition by automatic gamma counter analysis relative to baseline; type: ADME, organism-based; settings: in vivo
[5] = Biodistribution in male ICR mouse brain at 0.74 MBq, iv administered into tail vein measured at 2 mins post-injection by automatic gamma counter analysis; type: ADME, organism-based; settings: in vivo
[6] = Biodistribution in male ICR mouse small intestine 0.74 MBq, iv administered into tail vein pre-treated with GSK'547 followed by compound addition by automatic gamma counter analysis relative to baseline; type: ADME, organism-based; settings: in vivo
[7] = Biodistribution in male ICR mouse bone at 0.74 MBq, iv administered into tail vein pre-treated with GSK'547 followed by compound addition by automatic gamma counter analysis; type: ADME, organism-based, Bone element; settings: in vivo
[8] = Biodistribution in male ICR mouse small intestine at 0.74 MBq, iv administered into tail vein measured at 60 mins post-injection by automatic gamma counter analysis; type: ADME, organism-based; settings: in vivo, 1 h
[9] = Drug uptake in male Sprague-Dawley rat cerebellum at 12.6 to 18.6 MBq, iv administered into tail vein by PET/CT imaging analysis; type: ADME, organism-based; settings: in vivo, dose 12.6-18.6 MBq
[10] = Biodistribution in male ICR mouse spleen at 0.74 MBq, iv administered into tail vein pre-treated with GSK'547 followed by compound addition by automatic gamma counter analysis relative to baseline; type: ADME, organism-based; settings: in vivo
[11] = Biodistribution in male ICR mouse liver at 0.74 MBq, iv administered into tail vein by automatic gamma counter analysis; type: ADME, organism-based; settings: in vivo
[12] = Biodistribution in male ICR mouse pancreas at 0.74 MBq, iv administered into tail vein pre-treated with WL8 followed by compound addition by automatic gamma counter analysis relative to baseline; type: ADME, organism-based; settings: in vivo
[13] = Biodistribution in male ICR mouse brain at 0.74 MBq, iv administered into tail vein pre-treated with WL8 at 6 mg/kg followed by compound addition by automatic gamma counter analysis; type: ADME, organism-based; settings: in vivo
[14] = Drug degradation in male mouse brain assessed as parent compound remaining at 26.6 MBq by radio-HPLC analysis; type: ADME, tissue-based
[15] = Biodistribution in male ICR mouse heart at 0.74 MBq, iv administered into tail vein pre-treated with GSK'547 followed by compound addition by automatic gamma counter analysis relative to baseline; type: ADME, organism-based; settings: in vivo
[16] = Biodistribution in male ICR mouse brain at 0.74 MBq, iv administered into tail vein pre-treated with WL8 at 2 mg/kg followed by compound addition by automatic gamma counter analysis; type: ADME, organism-based; settings: in vivo
[17] = Drug uptake in male rat white matter region at 5 microCi/ml incubated for 30 mins by phosphor imager analysis; type: ADME, tissue-based, Brain white matter; settings: 0.5 h
[18] = Biodistribution in male ICR mouse blood at 0.74 MBq, iv administered into tail vein measured at 2 mins post-injection by automatic gamma counter analysis; type: ADME, organism-based; settings: in vivo
[19] = Biodistribution in male ICR mouse bone at 0.74 MBq, iv administered into tail vein pre-treated with WL8 followed by compound addition by automatic gamma counter analysis relative to baseline; type: ADME, organism-based, Bone element; settings: in vivo
[20] = Biodistribution in male ICR mouse brain at 0.74 MBq, iv administered into tail vein pre-treated with GSK'547 by automatic gamma counter analysis; type: ADME, organism-based; settings: in vivo
[21] = Biodistribution in male ICR mouse bone at 0.74 MBq, iv administered into tail vein measured at 30 mins post-injection by automatic gamma counter analysis; type: ADME, organism-based, Bone element; settings: in vivo, 0.5 h
[22] = Drug uptake in male Sprague-Dawley rat cortex at 12.6 to 18.6 MBq, iv administered into tail vein by PET/CT imaging analysis; type: ADME, organism-based; settings: in vivo, dose 12.6-18.6 MBq
[23] = Biodistribution in male ICR mouse blood at 0.74 MBq, iv administered into tail vein pre-treated with WL8 followed by compound addition by automatic gamma counter analysis relative to baseline; type: ADME, organism-based; settings: in vivo
[24] = Drug uptake in male Sprague-Dawley rat brain at 12.6 to 18.6 MBq, iv administered into tail vein measured after rapid washout by PET/CT imaging analysis; type: ADME, organism-based; settings: in vivo, dose 12.6-18.6 MBq
[25] = Drug degradation in male mouse plasma assessed as parent compound remaining at 26.6 MBq by radio-HPLC analysis; type: ADME, cell-free
[26] = Drug uptake in male Sprague-Dawley rat brain at 12.6 to 18.6 MBq, iv administered into tail vein measured at 1.5 mins post-injection by PET/CT imaging analysis; type: ADME, organism-based; settings: in vivo, 0.025 h, dose 12.6-18.6 MBq
[27] = Biodistribution in male ICR mouse brain at 0.74 MBq, iv administered into tail vein measured at 30 mins post-injection by automatic gamma counter analysis; type: ADME, organism-based; settings: in vivo, 0.5 h
[28] = Biodistribution in male ICR mouse pancreas at 0.74 MBq, iv administered into tail vein measured at 60 mins post-injection by automatic gamma counter analysis; type: ADME, organism-based; settings: in vivo, 1 h
[29] = Drug uptake in male mouse midbrain at 5 microCi/ml incubated for 30 mins by phosphor imager analysis; type: ADME, tissue-based; settings: 0.5 h
[30] = Stability of compound in saline at 37 degreeC incubated for 6 hrs by HPLC analysis; type: physicochemical; settings: buffer
[31] = Biodistribution in male ICR mouse lungs at 0.74 MBq, iv administered into tail vein by automatic gamma counter analysis; type: ADME, organism-based, Lung; settings: in vivo
[32] = Biodistribution in male ICR mouse lung at 0.74 MBq, iv administered into tail vein pre-treated with WL8 followed by compound addition by automatic gamma counter analysis relative to baseline; type: ADME, organism-based; settings: in vivo
[33] = Biodistribution in male ICR mouse heart at 0.74 MBq, iv administered into tail vein measured at 60 mins post-injection by automatic gamma counter analysis; type: ADME, organism-based; settings: in vivo, 1 h

Drug uptake [1]: Active
Drug uptake [2]: Active
Drug uptake [3]: < 4 % ID/g
Drug uptake [4]: Active
Drug uptake [5]: 4.8 % ID/g
Drug uptake [6]: Not_active
Drug uptake [7]: > 29%
Drug uptake [8]: 20.75 % ID/g
SUV [9]: Active
Drug uptake [10]: Active
Drug uptake [11]: > 6.5 % ID/g
Drug uptake [12]: Active
Drug uptake [13]: 129%
Stability [14]: 35.2%
Drug uptake [15]: Active
Drug uptake [16]: 58%
Drug uptake [17]: Active
Drug uptake [18]: 4.57 % ID/g
Drug uptake [19]: Not_active
Drug uptake [20]: 91%
Drug uptake [21]: 7.94 % ID/g
SUV [22]: Active
Drug uptake [23]: Active
SUV [24]: 0.12
Stability [25]: 10.8%
SUVmax [26]: 0.81
Drug uptake [27]: 0.36 % ID/g
Drug uptake [28]: < 4 % ID/g
Drug uptake [29]: Active
Stability [30]: Stable
Drug uptake [31]: > 6.5 % ID/g
Drug uptake [32]: Active
Drug uptake [33]: < 4 % ID/g
Compound: Cc1ccc(C2CC=NN2C(=O)C2CCN(C(=O)c3cccc([18F])n3)CC2)cc1F (stereo not drawn)
